Reference: patent publication US9549921B2, “Heterocyclic compounds and methods of use thereof for the treatment of hepatitis C” (priority 2014, dated 2017)
Where two headings read alike, the source gives them in different places.

Legend:
HCV replicon genotype 1a = experiment: HCV replicon assay, genotype 1a (cell ELISA for NS3/4A); format: cell-based, hepatitis C virus
Outline: (§1)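 Stable neomycin-resistant replicon cell lines (genotype 1a or 1b) incubated 96 h with compound dilution series without G418. After washing and lysis, replication measured by cell ELISA for replicon-encoded NS3/4A protein; IC50 as % of DMSO control via four-parameter fit.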

HCV replicon genotype 1b = experiment: HCV replicon assay, genotype 1b (cell ELISA for NS3/4A); format: cell-based, hepatitis C virus
Outline: as §1

[1] = read-out: 1a IC50, HCV genotype 1a replicon cells, 96 hours incubation, NS3/4A ELISA readout, % of DMSO control
[2] = read-out: 1b IC50, HCV genotype 1b replicon cells, 96 hours incubation, NS3/4A ELISA readout, % of DMSO control
[3] = Hepatitis C virus, 96 h, read-out: 1a IC50 (nM), HCV genotype 1a replicon cells, 96 hours incubation, NS3/4A ELISA readout, % of DMSO control
[4] = Hepatitis C virus, 96 h, read-out: 1b IC50 (nM), HCV genotype 1b replicon cells, 96 hours incubation, NS3/4A ELISA readout, % of DMSO control

| Structure (SMILES) | IC50 (HCV replicon genotype 1a; [1]) | IC50 (HCV replicon genotype 1b; [2]) | IC50 (HCV replicon genotype 1a; [3]) | IC50 (HCV replicon genotype 1b; [4]) |
| --- | --- | --- | --- | --- |
| CNC(=O)c1c(-c2ccc(F)cc2)oc2cc(N(C)S(C)(=O)=O)c([C@@H]3CCCN(C(=O)c4nc5ccccc5n4C)C3)cc12 (single isomer, unassigned) [Example 24, 2-(4-fluorophenyl)-N-methyl-5-(1-(1-methyl-1H-benzo[d]imidazole-2-carbonyl)piperidin-3-yl)-6-(N-methylmethylsulfonamido)benzofuran-3-carboxamide] | 32.7 nM | 40.5 nM |  |  |
| CNC(=O)c1c(-c2ccc(F)cc2)oc2cc(N(C)S(C)(=O)=O)c([C@@H]3CCCN(C(=O)c4[nH]c5c(F)cccc5c4C)C3)cc12 [Example 37, (S)-5-(1-(7-fluoro-3-methyl-1H-indole-2-carbonyl)piperidin-3-yl)-2-(4-fluorophenyl)-N-methyl-6-(N-methylmethylsulfonamido)benzofuran-3-carboxamide] |  |  | 162 nM | 92.8 nM |
| CNC(=O)c1c(-c2ccc(F)cc2)oc2cc(N(C)S(C)(=O)=O)c([C@@H]3CCCN(C(=O)C=C(C)C)C3)cc12 [Example 63, 2-(4-fluorophenyl)-N-methyl-5-[1-(3-methylbut-2-enoyl)piperidin-3-yl]-6-[methyl(methylsulfonyl)amino]-1-benzofuran-3-carboxamide] |  |  | 156 nM | 68.1 nM |
| CNC(=O)c1c(-c2ccc(F)cc2)oc2cc(N(C)S(C)(=O)=O)c([C@@H]3CCCN(c4nc5c(F)cccc5o4)C3)cc12 (single isomer, unassigned) [Example 49, 5-(1-(4-fluorobenzo[d]oxazol-2-yl)piperidin-3-yl)-2-(4-fluorophenyl)-N-methyl-6-(N-methylmethylsulfonamido)benzofuran-3-carboxamide] | 5.76 nM | 7.44 nM |  |  |
| CNC(=O)c1c(-c2ccc(F)cc2)oc2cc(N(C)S(C)(=O)=O)c([C@H]3CCCN(C(=O)c4n[nH]c5cc(Br)ccc45)C3)cc12 [Example 99, 5-{(3R)-1-[(6-bromo-1H-indazol-3-yl)carbonyl]piperidin-3-yl}-2-(4-fluorophenyl)-N-methyl-6-[methyl(methylsulfonyl)amino]-1-benzofuran-3-carboxamide] |  |  | 137 nM | 66.7 nM |
| CNC(=O)c1c(-c2ccc(F)cc2)oc2cc(N(C)S(C)(=O)=O)c([C@H]3CCCN(C(=O)c4nn(CC5CC5)c5ccccc45)C3)cc12 [Example 100, 5-[(3R)-1-{[1-(cyclopropylmethyl)-1H-indazol-3-yl]carbonyl}piperidin-3-yl]-2-(4-fluorophenyl)-N-methyl-6-[methyl(methylsulfonyl)amino]-1-benzofuran-3-carboxamide] |  |  | 65 nM | 20.4 nM |
| CNC(=O)c1c(-c2ccc(F)cc2)oc2cc(N(C)S(C)(=O)=O)c([C@@H]3CCN(C(=O)c4cc5c(F)cccc5n4C)C3)cc12 (single isomer, unassigned) [Example 14, 5-(1-(4-fluoro-1-methyl-1H-indole-2-carbonyl)pyrrolidin-3-yl)-2-(4-fluorophenyl)-N-methyl-6-(N-methylmethylsulfonamido)benzofuran-3-carboxamide] | 25.9 nM | 2.77 nM |  |  |
| CNC(=O)c1c(-c2ccc(F)cc2)oc2cc(N(C)S(C)(=O)=O)c([C@H]3CCCN(C(=O)c4cn5c(Br)cccc5n4)C3)cc12 [Example 103, 5-{(3R)-1-[(5-bromoimidazo[1,2-a]pyridin-2-yl)carbonyl]piperidin-3-yl}-2-(4-fluorophenyl)-N-methyl-6-[methyl(methylsulfonyl)amino]-1-benzofuran-3-carboxamide] |  |  | 212 nM | 110 nM |
| CNC(=O)c1c(-c2ccc(F)cc2)oc2cc(N(C)S(C)(=O)=O)c([C@H]3CN(C(=O)c4cc5c(F)cccc5n4C)CCO3)cc12 (single isomer, unassigned) [Example 8, 5-(4-(4-fluoro-1-methyl-1H-indole-2-carbonyl)morpholin-2-yl)-2-(4-fluorophenyl)-N-methyl-6-(N-methylmethylsulfonamido)benzofuran-3-carboxamide] |  |  | 28.2 nM | 36.9 nM |
| CNC(=O)c1c(-c2ccc(F)cc2)oc2cc(N(C)S(C)(=O)=O)c([C@@H]3CCCN(C(=O)c4nc5ncccc5[nH]4)C3)cc12 [Example 35, (S)-5-(1-(1H-imidazo[4,5-b]pyridine-2-carbonyl)piperidin-3-yl)-2-(4-fluorophenyl)-N-methyl-6-(N-methylmethylsulfonamido)benzofuran-3-carboxamide] |  |  | 71.6 nM | 48.9 nM |
| CNC(=O)c1c(-c2ccc(F)cc2)oc2cc(N(C)S(C)(=O)=O)c([C@@H]3CCCN(C(=O)c4cc5c(F)cccc5n4C)C3)cc12 (single isomer, unassigned) [Example 26, 5-(1-(4-fluoro-1-methyl-1H-indole-2-carbonyl)piperidin-3-yl)-2-(4-fluorophenyl)-N-methyl-6-(N-methylmethylsulfonamido)benzofuran-3-carboxamide] | 15.8 nM | 12.6 nM |  |  |
| CNC(=O)c1c(-c2ccc(F)cc2)oc2cc(N(C)S(C)(=O)=O)c([C@H]3CCCN(S(=O)(=O)C4CCCC4)C3)cc12 [Example 135, 5-[(3R)-1-(cyclopentylsulfonyl)piperidin-3-yl]-2-(4-fluorophenyl)-N-methyl-6-[methyl(methylsulfonyl)amino]-1-benzofuran-3-carboxamide] |  |  | 80.4 nM | 45.6 nM |
| CNC(=O)c1c(-c2ccc(F)cc2)oc2cc(N(C)S(C)(=O)=O)c([C@H]3CCCN(S(=O)(=O)/C=C/c4ccccc4)C3)cc12 [Example 79, 2-(4-fluorophenyl)-N-methyl-6-[methyl(methylsulfonyl)amino]-5-[(3R)-1-{[(E)-2-phenylethenyl]sulfonyl}piperidin-3-yl]-1-benzofuran-3-carboxamide] |  |  | 64.8 nM | 33.1 nM |
| CNC(=O)c1c(-c2ccc(F)cc2)oc2cc(N(C)S(C)(=O)=O)c([C@@H]3CCCN(c4ncc(-c5ccc(F)cc5)o4)C3)cc12 (single isomer, unassigned) [Example 57, 2-(4-fluorophenyl)-5-(1-(5-(4-fluorophenyl)oxazol-2-yl)piperidin-3-yl)-N-methyl-6-(N-methylmethylsulfonamido)benzofuran-3-carboxamide] | 19.9 nM |  |  | 22.2 nM |
| CNC(=O)c1c(-c2ccc(F)cc2)oc2cc(N(C)S(C)(=O)=O)c(C3CCCN(C(=O)[C@H](NC(=O)OC(C)(C)C)c4ccccc4F)C3)cc12 (single isomer, unassigned) [Example 28] | 23.9 nM | 21.4 nM |  |  |
| CNC(=O)c1c(-c2ccc(F)cc2)oc2cc(N(C)S(C)(=O)=O)c([C@@H]3CCCN(S(=O)(=O)Cc4ccccc4)C3)cc12 [Example 121, 5-[(3S)-1-(benzylsulfonyl)piperidin-3-yl]-2-(4-fluorophenyl)-N-methyl-6-[methyl(methylsulfonyl)amino]-1-benzofuran-3-carboxamide] |  |  | 47.5 nM | 23.8 nM |
| CNC(=O)c1c(-c2ccc(F)cc2)oc2cc(N(C)S(C)(=O)=O)c([C@@H]3CCCN(S(=O)(=O)c4ccccc4C)C3)cc12 [Example 111, 2-(4-fluorophenyl)-N-methyl-6-[methyl(methylsulfonyl)amino]-5-{(3S)-1-[(2-methylphenyl)sulfonyl]piperidin-3-yl}-1-benzofuran-3-carboxamide] |  |  | 68.1 nM | 17.2 nM |
| CNC(=O)c1c(-c2ccc(F)cc2)oc2cc(N(C)S(C)(=O)=O)c([C@H]3CN(c4nc5ccccc5o4)CCO3)cc12 (single isomer, unassigned) [Example 11, 5-(4-(benzo[d]oxazol-2-yl)morpholin-2-yl)-2-(4-fluorophenyl)-N-methyl-6-(N-methylmethylsulfonamido)benzofuran-3-carboxamide] | 21.4 nM | 17.2 nM |  |  |
| CNC(=O)c1c(-c2ccc(F)cc2)oc2cc(N(C)S(C)(=O)=O)c([C@H]3CCCN(C(=O)C(c4ccccc4)N4CCOCC4)C3)cc12 (stereo partly drawn) [Example 98, 2-(4-fluorophenyl)-N-methyl-6-[methyl(methylsulfonyl)amino]-5-{(3R)-1-[morpholin-4-yl(phenyl)acetyl]piperidin-3-yl}-1-benzofuran-3-carboxamide] |  |  | 241 nM | 112 nM |
| CNC(=O)c1c(-c2ccc(F)cc2)oc2cc(N(C)S(C)(=O)=O)c([C@@H]3CCCN(C(=O)Cc4ccc(F)cc4)C3)cc12 (single isomer, unassigned) [Example 18, 2-(4-fluorophenyl)-5-(1-(2-(4-fluorophenyl)acetyl)piperidin-3-yl)-N-methyl-6-(N-methylmethylsulfonamido)benzofuran-3-carboxamide] | 188 nM | 72.2 nM |  |  |
| CNC(=O)c1c(-c2ccc(F)cc2)oc2cc(N(C)S(C)(=O)=O)c([C@@H]3CCN(C(=O)c4cc5c(F)cccc5n4C)C3)cc12 (single isomer, unassigned) [Example 15, 5-(1-(4-fluoro-1-methyl-1H-indole-2-carbonyl)pyrrolidin-3-yl)-2-(4-fluorophenyl)-N-methyl-6-(N-methylmethylsulfonamido)benzofuran-3-carboxamide] | 125 nM | 11.2 nM |  |  |
| CNC(=O)c1c(-c2ccc(F)cc2)oc2cc(N(C)S(C)(=O)=O)c([C@@H]3CCCN(c4nc5ccccc5[nH]4)C3)cc12 (single isomer, unassigned) [Example 45, 5-(1-(1H-benzo[d]imidazol-2-yl)piperidin-3-yl)-2-(4-fluorophenyl)-N-methyl-6-(N-methylmethylsulfonamido)benzofuran-3-carboxamide] | 225 nM | 70.9 nM |  |  |
